According to article PMC12189671, “Antioxidant Activity and Cytotoxicity Evaluation of New Catechol Hydrazinyl-Thiazole Derivatives as Potential Protectors in Retinal Degenerative Processes” (Antioxidants, 2025):

Legend:
[1] = DPPH radical scavenging assay; conditions: for IC50: 30 min incubation, λ = 517 nm
Experimental: The DPPH^• radical scavenging assay is based on transferring a hydrogen atom from the tested compounds to the violet stable free radical DPPH^• (2,2-diphenyl-1-picrylhydrazyl radical), converting it into a yellow compound. The assay was conducted using tested compounds and references in concentrations ranging from 2 to 50 µM, according to our adaptation of the protocol of Brand-Williams et al.. The absorbance of the samples is given by the remaining unreacted reagent radical, and it is inversely proportional to the amount of DPPH^• neutralized. The absorbance of the samples was measured at λ = 517 nm after 30 min of incubation in the dark at room temperature. The DPPH^• radical scavenging activity of the compounds was calculated using Equation (1):(1) DPPH^• scavenging (%)=control absorbance−sample absorbance/control absorbance×100

[2] = ABTS radical cation decolorization assay; conditions: 10 min incubation, pH 7.4, λ = 734 nm
Experimental: The ABTS^•+ (2,2′-azinobis-(3-ethylbenzothiazoline-6-sulfonic acid) decolorization assay, based on the method of Re et al., was performed in the concentration range of 1 to 25 µM according to protocols previously reported by our group. The reagent was prepared in a 0.1 M potassium phosphate buffer (pH 7.4) and activated overnight with MnO2 [89]. Prior to use, the stability of the ABTS^•+ reagent was verified by checking its absorbance at λ = 734 nm over one hour, ensuring a consistent absorption of around 0.7. The mixtures were incubated for 10 min in the dark at room temperature. The absorbance of the samples is given by the remaining unreacted reagent radical, and it is inversely proportional to the amount of ABTS^•+ neutralized. The ABTS^•+ scavenging activity of compounds was calculated using Equation (2).(2) ABTS^•^+ scavenging (%)=control absorbance−sample absorbance/control absorbance×100

[3] = Indirect 1O2 scavenging assay (ICG photo-generator, DPBF probe); conditions: 10^−5 M ICG and scavenger, 785 nm laser, 100 s
Experimental: The ^1O2 scavenging assay was employed using a previously established indirect protocol from our research group. In brief, indocyanine green (ICG), from Sigma–Aldrich (St. Louis, MO, USA), was utilized to induce ^1O2 production in the presence of 5a and 5b. Ascorbic acid was used as a reference antioxidant agent, and a blank sample without ^1O2 scavengers was prepared. The reaction mixtures were exposed to a Micro Raman System R-3000 (Photonitech, Singapore, Singapore) laser diode,(λ = 785 nm, 190 mW power) for a total time of 100 s. To evaluate the ^1O2 scavenging activity of the compounds 5a,b, the degradation of 1,3-diphenylisobenzofuran (DPBF), obtained from Alfa Aesar (Haverhill, MA, USA), was measured using a V-730 spectrophotometer (Jasco International Co., Ltd., Tokyo, Japan). To determine the ^1O2 quantum yields (Φ(^1O2)) of ICG in the presence of the studied molecules, the following equation was used: Φ(^1O2) = Φ(^1O2) ^ICG × ((S × F^ICG)/(S^ICG × F)), where S represents the slope of the absorbance difference of DPBF over time, F is the absorption correction factor (F = 1 − 10^−OD), and OD is the optical density at the excitation wavelength, λ = 785 nm. The Φ(^1O2) equal to 15.0% of free ICG was used as a reference. The concentrations utilized in the experiment were 0.1 mM for DPBF and 10^−5 M for ICG and the ^1O2 scavengers. Free DPBF was used as a control.
The efficacy of compounds 5a,b against ^1O2 was assessed using an indirect approach. ICG was used as a photo-induced ^1O2 generator alongside DPBF, serving as an indirect chemical probe capable of characterizing ^1O2 release in solution. This setup allowed us to evaluate the ^1O2 scavenging capacity of the tested molecules and compare their activity to a reference compound, specifically ascorbic acid. The samples were exposed to 785 nm laser radiation, and at 10-s intervals after irradiation, their UV-Vis absorption spectra were measured and analyzed (Figure 9). Subsequently, we determined the ^1O2 quantum yields (Φ(^1O2)) of ICG in the presence of 5a,b and ascorbic acid, using the Φ(^1O2) of free ICG of 15.0% as reference.

[4] = Cell viability (resazurin) on BJ; type: cell-based; conditions: human, BJ cells; for IC50 at 24 h: read-out: 24 h Exposure IC50 (cytotoxicity); for IC50 at 48 h: read-out: 48 h Exposure IC50 (cytotoxicity)
Description: The ARPE-19 cell line was purchased from CLS Cell Lines Service GmbH (Eppelheim, Germany) and cultured in Dulbecco’s modified Eagle’s medium/F-12 (HAM) 1:1 (Biological Industries, Beit, Israel). The medium was supplemented with 10% fetal bovine serum (FBS) (Thermo Fisher Scientific, Waltham, MA, USA) and 1% penicillin-streptomycin (Biosera, Cholet, France). The cancerous cell line A549 was purchased from ATCC (Manassas, VA, USA) and cultivated in high-glucose Dulbecco’s modified Eagle’s medium (DMEM 4.5 g/L). The normal BJ cell line was also purchased from ATCC (Manassas, VA, USA) and was cultivated in low-glucose Dulbecco’s modified Eagle’s medium (DMEM 1 g/L). The media was supplemented in both cases with 10% FBS. Cells were cultured in T75 flasks and incubated at 37 °C in a humidified incubator with 5% CO2 supplementation. For maintenance, the media was changed every 2–3 days, and when the confluence of the flask reached approximately 85%, the cells were either subcultured or further used in the experiments.
ARPE-19 cells were seeded at a density of 2 × 10^4 cells/well and 1 × 10^4 cells/well (suspended in 100 µL) in 96-well plates for 24 h and 48 h, respectively. For the BJ cells, the seeding density was 0.5 × 10^4 cells/well and 0.3 × 10^4 cells/well for 24 h and 48 h, respectively, and for the A549 cells, 1.5 × 10^4 cells/well for 24 h and 0.75 × 10^4 cells/well for 48 h. As cells have different sizes and volumes, the different seeding densities were selected to reach a confluency of 80–90% by the end of the experiments. Cells were further exposed to the synthesized compounds for 24/48 h at concentrations ranging from 12.5 to 500 µM. After the incubation period, the exposure media was removed, the cells were washed with PBS, and further incubated with a 200 µM resazurin solution for 3 h as described in our previous report. The conversion of resazurin to the fluorescent resorufin compound by viable cells was measured at λexcitation = 550; λemission = 600, using SpectraMax iD3 (Molecular Devices, San Jose, CA, USA). The experiments were conducted in biological triplicate, each with a minimum of 3 technical replicates. The measured viability was expressed as relative values to the control (cells exposed only to the vehicle–culture medium containing 0.4% DMSO).

In the case of `C/C=C/C=N/Nc1nc(-c2ccc(O)c(O)c2)cs1.Cl` [Compound 5a, 4-(2-(2-((1E,2E)-but-2-en-1-ylidene)hydrazineyl)thiazol-4-yl)benzene-1,2-diol hydrochloride], the IC50 [1] is reported as 9.8 µM, the “fold higher activity than the reference compounds in the DPPH^• scavenging assay” value ([1]; compared to ascorbic acid and Trolox) is reported as “up to 5 fold” and the IC50 [2] is reported as 4.67 µM. For the same compound, the “^1O2 quantum yield Φ(^1O2) of ICG in the presence of the scavenger” value [3] was 11.1%, the IC50 at 24 h [4] was 144 µM and the IC50 at 48 h [4] was 162 µM.
With `CC1=C(/C=C/C(C)=N/Nc2nc(-c3ccc(O)c(O)c3)cs2)C(C)(C)CCC1.Cl` [Compound 5b, 4-(2-(2-((2E,3E)-4-(2,6,6-trimethylcyclohex-1-en-1-yl)but-3-en-2-ylidene) hydrazineyl)thiazol-4-yl)benzene-1,2-diol hydrochloride] the IC50 [1] was 18.4 µM, the IC50 [2] was 5.03 µM and the “^1O2 quantum yield Φ(^1O2) of ICG in the presence of the scavenger” value [3] was 11%. It also gave an IC50 at 24 h [4] of 141 µM and an IC50 at 48 h [4] of 152 µM.
